Measured values: patent publication US4977172A, “Method of treating the symptoms of cognitive decline in an elderly patient employing (S)-3-ethyl-4-[(1-methyl-1H-imidazol-5-yl)-methyl]-2-oxazolidinone” (Warner-Lambert Company, priority 1989, dated 1990)

Key:
[1] = tested on: central muscarinic antagonist and agonist binding sites, rat cerebral cortex tissue; experiment: Receptor [3H]quinuclidinyl benzilate (RQNB) / [3H]cis-methyldioxalane (RCMD) binding, ratio of IC50 values; details: agonists ratio >=100, antagonists near 1, partial agonists between 1 and 100
Method: The biological activity of (S)-3-ethyl-4-[(1-methyl-1H-imidazol-5-yl)methyl]-2-oxazolidinone or a pharmaceutically acceptable salt thereof as an agent for the treatment of the symptoms of cognitive decline in an elderly patient including Alzheimer's disease was evaluated using a number of tests. The activity of the aforementioned compound or pharmaceutically acceptable salt thereof as a central muscarinic binding site agonist and antagonist was measured. Thus, in the Receptor [^3 H]Quinuclidinyl Benzilate Binding Assay (RQNB), described more fully by Watson, M., et al, Journal of Pharmacology and Experimental Therapeutics, 237, pages 411-418 (1986), rat cerebral cortex tissue is treated with radiolabeled quinuclidinyl benzilate, a known muscarinic binding site antagonist. The concentration of test compound required to inhibit 50% of the binding of this muscarinic antagonist is then determined. This procedure allows a determination of the affinity of the test compound for the central muscarinic antagonist site. […] The concentration of test compound required to inhibit 50% of the binding of this muscarinic agonist is then determined. […]

[2] = Oral availability and duration of action; details: in vivo
rat [3] = experiment: Increase in smooth muscle motility of the intestines (M2 active); assay type: in vivo; details: PO
Description: (§1) Thus, the receptor binding selectivity of (S)-3-ethyl-4-[(1-methyl-1H-imidazol-5-yl)methyl]-2-oxazolidinone translates into pharmacologic specificity in the whole animal with M1 actions (stomach emptying) predominating over M2 actions (enhanced intestinal motility). […] Additionally, as shown in Table I in the central nervous system the compound increases neocortical arousal as measured by quantitative electroencephalography at doses below those required to increase local cortical blood flow in rats.

[4] = tested on: M1 receptors / M2 receptors; experiment: M1/M2 receptor binding: transformed cells possessing only M1 receptors and heart tissue (M2 receptors)
Description: On the basis of molecular biology techniques, five subtypes of muscarinic receptors have been identified. For an agent useful in the treatment of cognitive decline in a patient, the relevant receptors are M1 since they are predominantly localized in brain areas associated with memory and learning (cortex and hippocampus). For comparison, M2 receptors are predominantly localized in peripheral tissues (e.g. the heart). […] The ratio of M1/M2 is shown in Table I. (S)-3-Ethyl-4-[(1-methyl-1H-imidazol-5-yl)methyl]-2-oxazolidinone is 3-fold selective for M1receptors over M2 receptors

awake unanesthetized rat = experiment: Heart rate in the awake unanesthetized rat; assay type: in vivo; details: increase = M1 response, decrease = M2 response
Description: as §1

rat [5] = experiment: Increase in rate of stomach emptying (M1 active); assay type: in vivo; details: PO
Description: as §1

Male Long-Evans rats = experiment: Neocortical arousal by quantitative electroencephalography (QEEG); assay type: in vivo; details: rat, 10.0, 32.0 and 100.0 mg/kg tested
Description: The methodology for determining neocortical arousal in rats by quantitative electroencephalography (QEEG) is as follows:
Male Long-Evans rats weighing 350 to 500 g were surgically implanted with stainless steel electrodes screwed into the skull surface overlying the frontal and occipital cortex. Electrodes were secured to a plastic connector (Plastic Products Model MS-363) which was permanently attached to the skull surface with dental acrylic. Animals were given one week to recover from surgery before testing.
After recovery from surgery, QEEG was measured Briefly, animals were placed into sound attenuating chambers during the light cycles of the rats diurnal cycle. Animals were allowed two hours to habituate to these environments. Thereafter, EEG was recorded continuously for ten minutes before and two hours after drug administration. Every other one-second sample of EEG was converted from the time to the frequency domain using a fast fourier transformation (FFT). […] Mean power within the 0 to 4 (delta), 5 to 8 (theta), 9 to 15 (alpha), 16 to 25 (beta) Hz bands was calculated separately for each bandwidth. Total power within all bandwidths also was calculated. […]
Data from each bandwidth and total power were analyzed separately using nonparametric ranked analysis of variance (Kruskals-Wallis rank transformed analysis with repeated measures). […]

## CCN1C(=O)OC[C@@H]1Cc1cncn1C [(S)-3-ethyl-4-[(1-methyl-1H-imidazol-5-yl)methyl]-2-oxazolidinone]
[1]
  RQNB/RCMD (ratio of IC50 values, muscarinic antagonist/agonist binding): 214
[2]
  duration of action: reasonable duration of action
[2]; po
  oral availability: good oral availability
Rat [3]
  ED50: 13.1 mg/kg
[4]; receptor binding
  selectivity for M1 receptors over M2 receptors: 3 fold
[4]; transformed cells with only M1 receptors vs heart tissue (M2)
  M1/M2 (RECEPTOR BINDING): 3.3
Awake unanesthetized rat
  effect on heart rate: increases (an M1 response) rather than decreases (an M2 response) heart rate
Rat [5]
  ED50: 1.6 mg/kg
Male Long-Evans rats
  ELECTROENCEPHALOGRAPHY (ACTIVE DOSE RANGE, mg/kg, PO): 10-100 mg/kg
